This passage reports IC50 results from patent US11124518B2, “L,2-dihydro-3H-pyrazolo[3,4-D]pyrimidin-3-one analogs” (Recurium IP Holdings, LLC, priority 2017, dated 2021).

The target in one experiment is Wee1 kinase (Homo sapiens (Human), UniProt P30291). Kind of experiment: Wee1 Binding Assay (FRET). The following applies: Wee1 kinase 2 nM, tracer 178 50 nM, 60 min at RT, read-out: Wee1 Enzymatic IC50. As for the experimental part: Wee 1 kinase was determined by using Flurorescence Resonance Energy Transfer (FRET) assay. […] The plate was shaken for 30 seconds, incubated for 60 min at RT, and recorded on fluorescence plate reader.

The next experiment relates to SW480 cells. Kind of experiment: SW480 Cellular Proliferation Assay (CellTiter-Glo). Type of experiment: cell-based. As to conditions: Homo sapiens, 96 h, 4 days. How it is done:
Cells were treated with compounds diluted in DMSO and a 10 point 3-fold serial dilutions. Plates were placed in 37° C., 5% CO2 for to incubate for 4 days. Before they were developed by adding 100 μL of CellTiter-Glo reagent (Promega) to the assay plate, plates were shaken briefly for 2 mins and allowed to incubate at RT for 60 mins. The bottom of the plates was pasted with white back seal and luminescence was recorded with Enspire or Envision.
Background: Cellular ATP, detected with luciferase, serves as a proxy for viable cell number.

For the next experiment, the system named is H23 cells. Kind of experiment: H23 Cellular Proliferation Assay (CellTiter-Glo). Type of experiment: cell-based. The following applies: Homo sapiens, NCI-H23, 96 h, 4 days. As for the experimental part: Cells were treated with compounds diluted in DMSO and a 9 point 5-fold serial dilutions. Plates were placed in 37° C., 5% CO2 to incubate for 4 days. Before they were developed by adding 100 μL of CellTiter-Glo reagent (Promega) to the assay plate, plates were shaken briefly for 2 mins and allowed to incubate at RT for 10 mins. The plates are read with a M5e plate reader according to CellTiter-Glo protocol. The GraphPad Prism software was used to get IC50 values. The bottom of the plates was pasted with white back seal and luminescence was recorded with Enspire or Envision.

Structures are written as SMILES. Counter-ions that a name gives are not always drawn. Bounds are passed on as bounds.

Wee1 kinase, sequence (P30291 whole entry): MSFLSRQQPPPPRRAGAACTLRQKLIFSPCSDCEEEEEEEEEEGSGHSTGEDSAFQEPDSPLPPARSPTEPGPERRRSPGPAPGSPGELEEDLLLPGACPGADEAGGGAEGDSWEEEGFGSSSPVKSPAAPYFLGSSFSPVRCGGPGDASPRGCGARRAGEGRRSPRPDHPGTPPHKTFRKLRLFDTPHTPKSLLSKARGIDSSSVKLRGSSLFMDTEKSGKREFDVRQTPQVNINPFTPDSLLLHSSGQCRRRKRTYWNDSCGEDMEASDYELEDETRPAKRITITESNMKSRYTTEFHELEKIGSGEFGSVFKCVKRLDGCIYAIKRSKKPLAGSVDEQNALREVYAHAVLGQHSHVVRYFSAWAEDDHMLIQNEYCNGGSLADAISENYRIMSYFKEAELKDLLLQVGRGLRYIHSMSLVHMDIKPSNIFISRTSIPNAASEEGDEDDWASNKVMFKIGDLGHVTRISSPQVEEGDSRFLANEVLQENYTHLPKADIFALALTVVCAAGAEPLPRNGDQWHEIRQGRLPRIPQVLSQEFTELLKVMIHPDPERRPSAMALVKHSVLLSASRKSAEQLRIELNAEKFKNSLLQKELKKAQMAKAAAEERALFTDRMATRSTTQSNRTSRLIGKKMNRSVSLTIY

A word on the IC50: it is the point on the concentration scale where inhibition reaches its midpoint. For `C=CCn1c(=O)c2cnc(Nc3ccc4c(c3)CC(N(C)C)C4)nc2n1-c1cccc(C(C)(C)O)n1` (centres unmarked) [Example 22, 2-allyl-6-((2-(dimethylamino)-2,3-dihydro-1H-inden-5-yl)amino)-1-(6-(2-hydroxypropan-2-yl)pyridin-2-yl)-1,2-dihydro-3H-pyrazolo[3,4-d]pyrimidin-3-one], the values for the concentration for half-maximal inhibition (IC50) on Wee1 kinase, in the experiment with SW480 cells and in the experiment on H23 cells were less than 10 nM, more than 1000 nM and 100 to 1000 nM, respectively.

As to `C=CCn1c(=O)c2cnc(Nc3ccc4c(c3)CN(S(C)(=O)=O)CC4)nc2n1-c1cccc(C(C)(C)O)n1` [Example 9, 2-Allyl-1-(6-(2-hydroxypropan-2-yl)pyridin-2-yl)-6-((2-(methylsulfonyl)-1,2,3,4-tetrahydroisoquinolin-7-yl)amino)-1,2-dihydro-3H-pyrazolo[3,4-d]pyrimidin-3-one], the values for the IC50 at Wee1 kinase and in the experiment on SW480 cells were less than 10 nM and 100 to 1000 nM, respectively.

Turning to `C=CCn1c(=O)c2cnc(Nc3ccc4c(c3)CN(C(C)=O)CC43CC3)nc2n1-c1cccc(C(C)(C)O)n1` [Example 4, 6-((2′-Acetyl-2′,3′-dihydro-1′H-spiro[cyclopropane-1,4′-isoquinolin]-7′-yl)amino)-2-allyl-1-(6-(2-hydroxypropan-2-yl)pyridin-2-yl)-1,2-dihydro-3H-pyrazolo[3,4-d]pyrimidin-3-one], the concentration for half-maximal inhibition (IC50) on Wee1 kinase is less than 10 nM.

With `C=CCn1c(=O)c2cnc(Nc3ccc4c(c3)CN(C)C4)nc2n1-c1cccc(C(C)(C)O)n1` [Example 23, 2-Allyl-1-(6-(2-hydroxypropan-2-yl)pyridin-2-yl)-6-((2-methylisoindolin-5-yl)amino)-1,2-dihydro-3H-pyrazolo[3,4-d]pyrimidin-3-one], the results for the IC50 on Wee1 kinase and in the experiment with H23 cells were less than 10 nM and 100 to 1000 nM, respectively.

Take `C=CCn1c(=O)c2cnc(Nc3ccc4c(n3)CCN(C)C4)nc2n1-c1cccc(C(C)(C)O)n1` [Example 26, 2-Allyl-1-(6-(2-hydroxypropan-2-yl)pyridin-2-yl)-6-((6-methyl-5,6,7,8-tetrahydro-1,6-naphthyridin-2-yl)amino)-1,2-dihydro-3H-pyrazolo[3,4-d]pyrimidin-3-one]: at Wee1 kinase, the concentration for half-maximal inhibition (IC50) lay within 10 to 100 nM.

Take `C=CCn1c(=O)c2cnc(Nc3ccc4c(c3)CCNC4)nc2n1-c1cccc(C(C)(C)O)n1` [Example 15, 2-Allyl-1-(6-(2-hydroxypropan-2-yl)pyridin-2-yl)-6-((1,2,3,4-tetrahydroisoquinolin-6-yl)amino)-1,2-dihydro-3H-pyrazolo[3,4-d]pyrimidin-3-one hydrogen chloride]: the IC50 at Wee1 kinase is less than 10 nM; in the experiment on SW480 cells, more than 1000 nM; with H23 cells it was 100 to 1000 nM.

Regarding `C=CCn1c(=O)c2cnc(Nc3ccc4c(c3)CNCC43CC3)nc2n1-c1cccc(C(C)(C)O)n1` [Example 2, 2-Alyl-6-((2′,3′-dihydro-1′H-spiro[cyclopropane-1,4′-isoquinolin]-7′-yl)amino)-1-(6-(2-hydroxypropan-2-yl)pyridin-2-yl)-1,2-dihydro-3H-pyrazolo[3,4-d]pyrimidin-3-one hydrochloride], the IC50 on Wee1 kinase was less than 10 nM; with SW480 cells, more than 1000 nM; with H23 cells, less than 100 nM.

In the case of `C=CCn1c(=O)c2cnc(Nc3ccc4c(c3)CNCC4(F)F)nc2n1-c1cccc(C(C)(C)O)n1` [Example 28, 2-Allyl-6-((4,4-difluoro-1,2,3,4-tetrahydroisoquinolin-7-yl)amino)-1-(6-(2-hydroxypropan-2-yl)pyridin-2-yl)-1,2-dihydro-3H-pyrazolo[3,4-d]pyrimidin-3-one hydrogen chloride], the IC50 at Wee1 kinase is less than 10 nM; in the experiment on H23 cells it was 100 to 1000 nM.

Regarding `C=CCn1c(=O)c2cnc(Nc3ccc4c(c3)CNC4)nc2n1-c1cccc(C(C)(C)O)n1` [Example 21, 2-Allyl-1-(6-(2-hydroxypropan-2-yl)pyridin-2-yl)-6-(isoindolin-5-ylamino)-1,2-dihydro-3H-pyrazolo[3,4-d]pyrimidin-3-one hydrogen chloride], the IC50 on Wee1 kinase is less than 10 nM; in the experiment on H23 cells it was 100 to 1000 nM.

Take `C=CCn1c(=O)c2cnc(Nc3ccc4c(c3)CCN(C3COC3)C4)nc2n1-c1cccc(C(C)(C)O)n1` [Example 18, 2-Allyl-1-(6-(2-hydroxypropan-2-yl)pyridin-2-yl)-6-((2-(oxetan-3-yl)-1,2,3,4-tetrahydroisoquinolin-6-yl)amino)-1,2-dihydro-3H-pyrazolo[3,4-d]pyrimidin-3-one]: the concentration for half-maximal inhibition (IC50) on Wee1 kinase was less than 10 nM; in the experiment on H23 cells it was 100 to 1000 nM.

Take `C=CCn1c(=O)c2cnc(Nc3ccc4c(c3)CN(C(C)C)CC43CC3)nc2n1-c1cccc(C(C)(C)O)n1` [Example 3, 2-Allyl-1-(6-(2-hydroxypropan-2-yl)pyridin-2-yl)-6-((2′-isopropyl-2′,3′-dihydro-1′H-spiro[cyclopropane-1,4′-isoquinolin]-7′-yl)amino)-1,2-dihydro-3H-pyrazolo[3,4-d]pyrimidin-3-one]: the concentration for half-maximal inhibition (IC50) on Wee1 kinase is less than 10 nM.

In the case of `C=CCn1c(=O)c2cnc(Nc3ccc4c(c3)CN(CC)CC4)nc2n1-c1cccc(C(C)(C)O)n1` [Example 7, 2-Allyl-6-((2-ethyl-1,2,3,4-tetrahydroisoquinolin-7-yl)amino)-1-(6-(2-hydroxypropan-2-yl)pyridin-2-yl)-1,2-dihydro-3H-pyrazolo[3,4-d]pyrimidin-3-one], the IC50 is less than 10 nM on Wee1 kinase and 100 to 1000 nM in the experiment on H23 cells.

On to `C=CCn1c(=O)c2cnc(Nc3ccc4c(c3)CN(C(C)C)CC4)nc2n1-c1cccc(C(C)(C)O)n1` [Example 10, 2-Allyl-1-(6-(2-hydroxypropan-2-yl)pyridin-2-yl)-6-((2-isopropyl-1,2,3,4-tetrahydroisoquinolin-7-yl)amino)-1,2-dihydro-3H-pyrazolo[3,4-d]pyrimidin-3-one], for which the IC50 at Wee1 kinase was less than 10 nM.

`C=CCn1c(=O)c2cnc(Nc3ccc4c(c3)[C@H](C)NCC4(C)C)nc2n1-c1cccc(C(C)(C)O)n1` (single isomer, unassigned) [Example 30]: the figures for the concentration for half-maximal inhibition (IC50) at Wee1 kinase and in the experiment on H23 cells were less than 10 nM and less than 100 nM, respectively.

In the case of `C=CCn1c(=O)c2cnc(Nc3ccc4c(c3)CN(C)CC43CC3)nc2n1-c1cccc(C(C)(C)O)n1` [Example 1, 2-Allyl-1-(6-(2-hydroxypropan-2-yl)pyridin-2-yl)-6-((2′-methyl-2′,3′-dihydro-1′H-spiro-[cyclopropane-1,4′-isoquinolin]-7′-yl)amino)-1,2-dihydro-3H-pyrazolo[3,4-d]pyrimidin-3-one], the IC50 with SW480 cells is 100 to 1000 nM; in the experiment with H23 cells, less than 100 nM.

As to `C=CCn1c(=O)c2cnc(Nc3ccc4c(c3)CN(C3COC3)CC4)nc2n1-c1cccc(C(C)(C)O)n1` [Example 14, 2-Allyl-1-(6-(2-hydroxypropan-2-yl)pyridin-2-yl)-6-((2-(oxetan-3-yl)-1,2,3,4-tetrahydroisoquinolin-7-yl)amino)-1,2-dihydro-3H-pyrazolo[3,4-d]pyrimidin-3-one], the concentration for half-maximal inhibition (IC50) in the experiment on H23 cells was in the range of 100 to 1000 nM.

For `C=CCn1c(=O)c2cnc(Nc3ccc4c(c3)CN(C)CC4(F)F)nc2n1-c1cccc(C(C)(C)O)n1` [Example 27, 2-Allyl-6-((4,4-difluoro-2-methyl-1,2,3,4-tetrahydroisoquinolin-7-yl)amino)-1-(6-(2-hydroxypropan-2-yl)pyridin-2-yl)-1,2-dihydro-3H-pyrazolo[3,4-d]pyrimidin-3-one], the half-inhibitory concentration (IC50) in the experiment on H23 cells was more than 1000 nM.

Take `C=CCn1c(=O)c2cnc(Nc3ccc4c(c3)[C@@H](C)NCC4(C)C)nc2n1-c1cccc(C(C)(C)O)n1` (single isomer, unassigned) [Example 29]: the IC50 on Wee1 kinase is less than 10 nM; in the experiment with H23 cells, 100 to 1000 nM.

As to `C=CCn1c(=O)c2cnc(Nc3cnc4c(c3)CN(C)CC4)nc2n1-c1cccc(C(C)(C)O)n1` [Example 25, 2-Allyl-1-(6-(2-hydroxypropan-2-yl)pyridin-2-yl)-6-((6-methyl-5,6,7,8-tetrahydro-1,6-naphthyridin-3-yl)amino)-1,2-dihydro-3H-pyrazolo[3,4-d]pyrimidin-3-one], on Wee1 kinase, the IC50 was less than 10 nM.

For `C=CCn1c(=O)c2cnc(Nc3ccc4c(c3)CCN(CCO)C4)nc2n1-c1cccc(C(C)(C)O)n1` [Example 17, 2-Allyl-6-((2-(2-hydroxyethyl)-1,2,3,4-tetrahydroisoquinolin-6-yl)amino)-1-(6-(2-hydroxypropan-2-yl)pyridin-2-yl)-1,2-dihydro-3H-pyrazolo[3,4-d]pyrimidin-3-one hydrogen chloride], the IC50 in the experiment on H23 cells was 100 to 1000 nM.

For `C=CCn1c(=O)c2cnc(Nc3ccc(N4CCN(C)CC4)cc3)nc2n1-c1cccc(C(C)(C)O)n1` [AZD1775, 2-allyl-1-(6-(2-hydroxypropan-2-yl)pyridin-2-yl)-6-(4-(4-methylpiperazin-1-yl)phenylamino)-1,2-dihydropyrazolo[3,4-d]pyrimidin-3-one, reference compound], the IC50 in the experiment with SW480 cells and with H23 cells was 100 to 1000 nM each time.

As for `C=CCn1c(=O)c2cnc(Nc3ccc4c(n3)CN(C)CC4)nc2n1-c1cccc(C(C)(C)O)n1` [Example 24, 2-Allyl-1-(6-(2-hydroxypropan-2-yl)pyridin-2-yl)-6-((7-methyl-5,6,7,8-tetrahydro-1,7-naphthyridin-2-yl)amino)-1,2-dihydro-3H-pyrazolo[3,4-d]pyrimidin-3-one], the IC50 on Wee1 kinase was 10 to 100 nM.
